Values quoted from earlier work as cited in patent publication US6576233B2 (priority 1996, dated 2003).

Legend:
people = settings: daily supplement, more than 1,300 people
[1] = Ferris et al. 1989

[Se] [Selenium, selenium]
reduction of overall cancer risk (people): ~40%
dosage reported as safe [1]: 600 micrograms per day
